Laboratory results reported in the supplement of paper PMC10307832.

Assays:
Experiment in all cases: relative viability (nuclei count vs DMSO), 5 days (fraction); higher = more cells survive
[1] = compound: CC1=NN=C(O1)C2=NN=C(C=C2)N3CCC(CC3)OC4=C(C=CC(=C4)F)Cl + CS(=O)(=O)N1CCN(Cc2cc3nc(-c4cccc5[nH]ncc45)nc(N4CCOCC4)c3s2)CC1 [Pictilisib] (partner 1 µM)
In short: (§1)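 After 5 days of treatment, lung cancer cells in 1536-well plates were fixed and stained in a single step (final 0.05% Triton X-100, 1% formaldehyde, 1 ug/ml Hoechst) and their nuclei counted on 4× images. Treatment had been applied by pin tool the day after seeding as one drug alone or as a fixed anchor-drug dose with five library-drug doses (not always all listed) in √10 steps. Relative viability is the nuclei count of treated wells divided by that of vehicle wells, and values are medians of duplicate plates.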

Tosedostat + Trametinib = compound: CC(C)C[C@@H](C(=O)N[C@H](C(=O)OC1CCCC1)c1ccccc1)[C@H](O)C(=O)NO [Tosedostat] + CC(=O)Nc1cccc(-n2c(=O)n(C3CC3)c(=O)c3c(Nc4ccc(I)cc4F)n(C)c(=O)c(C)c32)c1 [Trametinib] (partner 0.02 µM)
In short: as §1

[2] = compound: CC1=NN=C(O1)C2=NN=C(C=C2)N3CCC(CC3)OC4=C(C=CC(=C4)F)Cl + O=C(c1cc(Cc2n[nH]c(=O)c3ccccc23)ccc1F)N1CCN(C(=O)C2CC2)CC1 [Olaparib] (partner 8 µM)
In short: as §1

Tosedostat + Luminespib = compound: CC(C)C[C@@H](C(=O)N[C@H](C(=O)OC1CCCC1)c1ccccc1)[C@H](O)C(=O)NO [Tosedostat] + CCNC(=O)c1noc(-c2cc(C(C)C)c(O)cc2O)c1-c1ccc(CN2CCOCC2)cc1 [Luminespib] (partner 0.01 µM)
In short: as §1

| Cell Line | relative viability ([1]; first compound 0.253 µM) | relative viability ([1]; first compound 0.8 µM) | relative viability ([1]; first compound 2.53 µM) | relative viability ([1]; first compound 8 µM) | relative viability (Tosedostat + Trametinib; first compound 0.02 µM) | relative viability (Tosedostat + Trametinib; first compound 0.06325 µM) | relative viability (Tosedostat + Trametinib; first compound 0.2 µM) | relative viability (Tosedostat + Trametinib; first compound 0.6325 µM) | relative viability (Tosedostat + Trametinib; first compound 2 µM) | relative viability ([2]; first compound 0.253 µM) | relative viability ([2]; first compound 0.8 µM) | relative viability ([2]; first compound 2.53 µM) | relative viability ([2]; first compound 8 µM) | relative viability (Tosedostat + Luminespib; first compound 0.02 µM) | relative viability (Tosedostat + Luminespib; first compound 0.06325 µM) | relative viability (Tosedostat + Luminespib; first compound 0.2 µM) | relative viability (Tosedostat + Luminespib; first compound 0.6325 µM) | relative viability (Tosedostat + Luminespib; first compound 2 µM) |
| --- | --- | --- | --- | --- | --- | --- | --- | --- | --- | --- | --- | --- | --- | --- | --- | --- | --- | --- |
| NCI-H460 | 0.24 | 0.329 | 0.232 | 0.221 | 0.157 | 0.197 | 0.204 | 0.181 | 0.217 | 0.15 | 0.155 | 0.199 | 0.198 | 0.0336 | 0.0335 | 0.03 | 0.0417 | 0.0255 |
| NCI-H520 | 0.3 | 0.325 | 0.29 | 0.316 | 0.731 | 0.733 | 0.645 | 0.699 | 0.67 | 0.308 | 0.346 | 0.294 | 0.259 | 0.172 | 0.252 | 0.209 | 0.291 | 0.225 |
| NCI-H596 | – | 0.352 | 0.366 | 0.363 | 0.842 | 0.848 | 0.861 | 0.901 | 0.803 | 0.541 | 0.732 | 0.752 | 0.615 | 1.07 | 1.26 | 1.04 | 0.893 | 0.938 |
| NCI-H647 | 0.398 | 0.552 | 0.392 | 0.391 | 0.452 | 0.485 | 0.425 | 0.622 | 0.515 | 0.232 | 0.157 | 0.173 | 0.0657 | 0.11 | 0.212 | 0.171 | 0.334 | 0.167 |
| NCI-H650 | 0.869 | 0.775 | 0.47 | 0.889 | 1.04 | 1.03 | 0.852 | 0.924 | 0.836 | 0.39 | 0.227 | 0.407 | 0.382 | 0.952 | 0.773 | 0.834 | 0.714 | 0.755 |
| NCI-H661 | 0.386 | 0.367 | 0.376 | 0.366 | 0.688 | 0.596 | 0.579 | 0.613 | 0.637 | 0.619 | 0.542 | 0.583 | 0.586 | 0.958 | 0.957 | 0.977 | 0.909 | 0.885 |
| NCI-H727 | 0.475 | 0.4 | 0.498 | 0.403 | 0.398 | 0.37 | 0.413 | 0.412 | 0.376 | 0.68 | 0.7 | 0.656 | 0.665 | 0.305 | 0.513 | – | 0.427 | 0.254 |
| NCI-H838 | 0.422 | 0.459 | 0.442 | 0.416 | 0.559 | 0.446 | 0.52 | 0.596 | 0.59 | 0.536 | 0.595 | 0.637 | 0.591 | 0.323 | 0.284 | 0.308 | 0.389 | 0.355 |
| NCI-H1355 | – | – | 0.453 | 0.374 | 0.344 | 0.388 | 0.44 | 0.386 | 0.406 | 0.378 | 0.422 | 0.75 | 0.596 | 0.699 | 0.782 | 0.779 | 0.688 | 0.648 |
| NCI-H1395 | 0.565 | 0.597 | 0.567 | 0.549 | 0.968 | 1.07 | 1.12 | 1.05 | 1.06 | 0.482 | 0.539 | 0.445 | 0.448 | 0.635 | 0.774 | 0.664 | 0.663 | 0.559 |
| NCI-H1437 | 0.556 | 0.426 | 0.447 | 0.386 | 0.552 | 0.523 | 0.631 | 0.469 | 0.547 | 0.416 | 0.516 | 0.449 | 0.403 | 1.13 | 1.07 | 1.2 | 1.24 | 1.13 |
| NCI-H1650 | – | 0.588 | 0.554 | 0.561 | 0.79 | 0.627 | 0.552 | 0.533 | 0.479 | 0.516 | 0.645 | 0.642 | 0.597 | 0.185 | 0.179 | 0.205 | 0.19 | 0.174 |
| NCI-H1651 | 0.506 | 0.665 | 0.524 | 0.417 | 0.777 | 0.789 | 0.897 | 0.869 | 0.742 | 0.165 | 0.162 | 0.17 | 0.162 | 0.787 | 0.715 | 0.981 | 0.828 | 0.582 |
| NCI-H1666 | 0.276 | 0.414 | 0.456 | 0.313 | 0.962 | 0.856 | 0.929 | 0.91 | 0.851 | 0.692 | 0.728 | 0.655 | 0.664 | 1.02 | 1.01 | 0.969 | 0.994 | 1.11 |
| NCI-H1734 | 0.451 | 0.404 | 0.421 | 0.355 | 0.778 | 0.666 | 0.664 | 0.502 | 0.572 | 0.544 | 0.509 | 0.57 | 0.472 | 0.183 | 0.197 | 0.194 | 0.229 | 0.232 |
| NCI-H1755 | 0.382 | 0.383 | 0.398 | 0.387 | 0.782 | 0.837 | 0.813 | 0.869 | 0.744 | 0.65 | 0.616 | 0.657 | 0.562 | 0.595 | 0.512 | 0.512 | 0.578 | 0.415 |
| NCI-H1792 | 0.205 | 0.314 | 0.375 | 0.411 | 0.4 | 0.417 | 0.4 | 0.42 | 0.479 | 0.264 | 0.376 | 0.337 | 0.364 | 0.427 | 0.356 | 0.433 | 0.802 | 0.935 |
| NCI-H1793 | 0.307 | 0.312 | 0.31 | 0.347 | 0.507 | 0.49 | 0.445 | 0.437 | 0.448 | 0.761 | 0.74 | 0.762 | 0.738 | 0.166 | 0.233 | 0.322 | 0.245 | 0.249 |
